In patent US20100267774A1, “P38 MAP KINASE INHIBITORS” (CHROMA THERAPEUTICS LTD., priority 2007, published 2010):

Tests used:
p38 MAP Kinase a = molecular target: T1, p38 MAP Kinase a (Homo sapiens, UniProt Q16539); test: p38 MAP Kinase activity, radiometric filter-binding assay (Upstate); format: biochemical; conditions: IC50 range; read-out: Inhibitor activity versus p38 MAPKa
T1 construct: purchased Upstate (Dundee UK)
Method: The ability of compounds to inhibit p38 MAP a Kinase activity was measured in an assay performed by Upstate (Dundee UK). In a final reaction volume of 25 μL, p38 MAP Kinase a (5-10 mU) is incubated with 25 mM Tris pH 7.5, 0.002 mMEGTA, 0.33 mg/mL myelin basic protein, 10 mM MgAcetate and [g-33P-ATP] (specific activity approx. 500 cpm/pmol, concentration as required). The reaction is initiated by the addition of the MgATP mix. After incubation for 40 minutes at room temperature, the reaction is stopped by the addition of 5 μL of a 3% phosphoric acid solution. 10 μL of the reaction is then spotted onto a P30 filtermat and washed three times for 5 minutes in 75 mM phosphoric acid and once in methanol prior to drying and scintillation counting.
Duplicate data points are generated from a 1/3 log dilution series of a stock solution in DMSO. Nine dilutions steps are made from a top concentration of 10 μM, and a ‘no compound’ blank is included. The standard radiometric filter-binding assay is performed at an ATP concentration at, or close to, the Km. Data from scintillation counts are collected and subjected to free-fit analysis by Prism software. From the curve generated, the concentration giving 50% inhibition is determined and reported.

THP-1 TNFα release = test: LPS-stimulation of THP-1 cells, TNF-α release by ELISA; format: cell-based; conditions: Homo sapiens, THP-1, 6 h; read-out: Inhibitor activity versus THP-1 TNFα release
Method: THP-1 cells were plated in 100 μl at a density of 4×10^4 cells/well in V-bottomed 96 well tissue culture treated plates and incubated at 37° C. in 5% CO2 for 16 hrs. 2 hrs after the addition of the inhibitor in 100 μl of tissue culture media, the cells were stimulated with LPS (E coli strain 005:B5, Sigma) at a final concentration of 1 μg/ml and incubated at 37° C. in 5% CO2 for 6 hrs. TNF-α levels were measured from cell-free supernatants by sandwich ELISA (R&D Systems #QTA00B).

T1 sequence (Q16539 whole entry): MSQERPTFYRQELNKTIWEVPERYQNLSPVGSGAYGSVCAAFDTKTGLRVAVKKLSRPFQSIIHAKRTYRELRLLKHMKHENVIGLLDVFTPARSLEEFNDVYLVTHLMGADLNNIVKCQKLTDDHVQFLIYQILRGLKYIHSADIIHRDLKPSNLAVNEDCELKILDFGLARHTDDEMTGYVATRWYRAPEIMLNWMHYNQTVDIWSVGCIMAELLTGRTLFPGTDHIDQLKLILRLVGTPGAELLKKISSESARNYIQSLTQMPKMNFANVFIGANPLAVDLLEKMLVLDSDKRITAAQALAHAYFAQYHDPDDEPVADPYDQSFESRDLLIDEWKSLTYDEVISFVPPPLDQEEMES

Row | SMILES | IC50 (p38 MAP Kinase a) | IC50 (THP-1 TNFα release)
1 | Nc1c(C(=O)c2ccc(F)cc2F)ccc(=O)n1-c1c(F)cc(CCN[C@H](C(=O)OC2CCCC2)c2ccc(O)cc2)cc1F [Example 44, Cyclopentyl (2S)-{[2-(4-{6-amino-5-[(2,4-difluorophenyl)carbonyl]-2-oxopyridin-1(2H)-yl}-3,5-difluorophenyl)ethyl]amino}(4-hydroxyphenyl)ethanoate] | < 100 nM | < 100 nM
2 | CC(C)C[C@H](NCCc1ccc(-n2c(N)c(C(=O)c3ccc(F)cc3F)ccc2=O)s1)C(=O)OC1CCCC1 [Example 49, Cyclopentyl N-(2-{5-[6-amino-5-(2,4-difluorobenzoyl)-2-oxopyridin-1(2H)-yl]-2-thienyl}ethyl)-L-leucinate] | 100 to 1000 nM | < 100 nM
3 | CC(C)(C)OC[C@H](NCCc1ccc(-n2c(N)c(C(=O)c3ccc(F)cc3F)ccc2=O)cc1)C(=O)OC1CCCC1 [Example 11, Cyclopentyl N-[2-(4-{6-amino-5-[(2,4-difluorophenyl)carbonyl]-2-oxopyridin-1(2H)-yl}phenyl)ethyl]-O-tert-butyl-L-serinate] | 100 to 1000 nM | < 100 nM
4 | C[C@@H](OC(C)(C)C)[C@H](NCCc1ccc(-n2c(N)c(C(=O)c3ccc(F)cc3F)ccc2=O)cc1)C(=O)OC1CCCC1 [Example 15, Cyclopentyl N-[2-(4-{6-amino-5-[(2,4-difluorophenyl)carbonyl]-2-oxopyridin-1(2H)-yl}phenyl)ethyl]-O-tert-butyl-L-threoninate] | 100 to 1000 nM | > 1000 nM
5 | CC(C)C[C@@H](NCCc1ccc(-n2c(N)c(C(=O)c3ccc(F)cc3F)ccc2=O)cc1)C(=O)OC1CCCC1 [Example 9, Cyclopentyl N-[2-(4-{6-amino-5-[(2,4-difluorophenyl)carbonyl]-2-oxopyridin-1(2H)-yl}phenyl)ethyl]-D-leucinate] | 100 to 1000 nM | 100 to 1000 nM
6 | CC[C@H](C)[C@H](NCCc1ccc(-n2c(N)c(C(=O)c3ccc(F)cc3F)ccc2=O)cc1)C(=O)OC1CCCC1 [Example 18, Cyclopentyl N-[2-(4-{6-amino-5-[(2,4-difluorophenyl)carbonyl]-2-oxopyridin-1(2H)-yl}phenyl)ethyl]-L-isoleucinate] | 100 to 1000 nM | < 100 nM
7 | CC(C)[C@H](NCCc1ccc(-n2c(N)c(C(=O)c3ccc(F)cc3F)ccc2=O)cc1)C(=O)OC1CCCC1 [Example 5, Cyclopentyl N-[2-(4-{6-amino-5-[(2,4-difluorophenyl)carbonyl]-2-oxopyridin-1(2H)-yl}phenyl)ethyl]-L-valinate] | 100 to 1000 nM | < 100 nM
8 | Nc1c(C(=O)c2ccc(F)cc2)ccc(=O)n1-c1c(F)cc(CCN[C@H](C(=O)OC2CCCC2)c2ccccc2)cc1F [Example 26, Cyclopentyl (2S)-[(2-{-4-[6-amino-5-(4-fluorobenzoyl)-2-oxopyridin-1(2H)-yl]-3,5-difluorophenyl}ethyl)amino](phenyl)acetate] | 100 to 1000 nM | < 100 nM

Continued, values first:

Row | IC50 (p38 MAP Kinase a) | IC50 (THP-1 TNFα release) | SMILES
9 | 100 to 1000 nM | < 100 nM | Nc1c(C(=O)c2ccc(F)cc2F)ccc(=O)n1-c1ccc(CCN[C@H](C(=O)OC2CCCC2)c2ccccc2)cc1 [Example 1]
10 | < 100 nM | < 100 nM | C[C@H](NCCc1ccc(-n2c(N)c(C(=O)c3ccc(F)cc3F)ccc2=O)cc1)C(=O)OC1CCCC1 [Example 20, Cyclopentyl N-[2-(4-{6-amino-5-[(2,4-difluorophenyl)carbonyl]-2-oxopyridin-1(2H)-yl}phenyl)ethyl]-L-alaninate]
11 | 100 to 1000 nM | 100 to 1000 nM | CC(C)C[C@@H](NCCc1cc(F)c(-n2c(N)c(C(=O)c3ccc(F)cc3)ccc2=O)c(F)c1)C(=O)OC(C)(C)C [Example 30, tert-butyl N-(2-{4-[6-amino-5-(4-fluorobenzoyl)-2-oxopyridin-1(2H)-yl]-3,5-difluorophenyl}ethyl)-D-leucinate]
12 | 100 to 1000 nM | 100 to 1000 nM | CC(C)[C@H](NCCc1ccc(-n2c(N)c(C(=O)c3ccc(F)cc3F)ccc2=O)cc1)C(=O)OC(C)(C)C [Example 6, tert-butyl N-[2-(4-{6-amino-5-[(2,4-difluorophenyl)carbonyl]-2-oxopyridin-1(2H)-yl}phenyl)ethyl]-L-valinate]
13 | 100 to 1000 nM | > 1000 nM | CC(C)(C)OC[C@H](NCCc1ccc(-n2c(N)c(C(=O)c3ccc(F)cc3F)ccc2=O)cc1)C(=O)OC(C)(C)C [Example 12, tert-butyl N-[2-(4-{6-amino-5-[(2,4-difluorophenyl)carbonyl]-2-oxopyridin-1(2H)-yl}phenyl)ethyl]-O-tert-butyl-L-serinate]
14 | < 100 nM | < 100 nM | COc1ccc([C@H](NCCc2cc(F)c(-n3c(N)c(C(=O)c4ccc(F)cc4F)ccc3=O)c(F)c2)C(=O)OC2CCCC2)cc1 [Example 46, Cyclopentyl (2S)-{[2-(4-{6-amino-5-[(2,4-difluorophenyl)carbonyl]-2-oxopyridin-1(2H)-yl}-3,5-difluorophenyl)ethyl]amino}(4-methoxyphenyl)ethanoate]
15 | 100 to 1000 nM | < 100 nM | CC(C)C[C@@H](NCCc1cc(F)c(-n2c(N)c(C(=O)c3ccc(F)cc3F)ccc2=O)c(F)c1)C(=O)OC1CCCC1 [Example 38, Cyclopentyl N-(2-{4-[6-amino-5-(2,4-difluorobenzoyl)-2-oxopyridin-1(2H)-yl]-3,5-difluorophenyl}ethyl)-D-leucinate]
16 | 100 to 1000 nM | > 1000 nM | CC(C)(C)[C@H](NCCc1ccc(-n2c(N)c(C(=O)c3ccc(F)cc3F)ccc2=O)cc1)C(=O)OC1CCCC1 [Example 7, Cyclopentyl N-[2-(4-{6-amino-5-[(2,4-difluorophenyl)carbonyl]-2-oxopyridin-1(2H)-yl}phenyl)ethyl]-3-methyl-L-valinate]
17 | 100 to 1000 nM | < 100 nM | CC(C)(C)OC(=O)[C@@H](NCCc1cc(F)c(-n2c(N)c(C(=O)c3ccc(F)cc3)ccc2=O)c(F)c1)c1ccccc1 [Example 27, tert-butyl (2S)-[(2-{4-[6-amino-5-(4-fluorobenzoyl)-2-oxopyridin-1(2H)-yl]-3,5-difluorophenyl}ethyl)amino](phenyl)acetate]
18 | 100 to 1000 nM | < 100 nM | CC(C)C[C@@H](NCCc1cc(F)c(-n2c(N)c(C(=O)c3ccc(F)cc3F)ccc2=O)c(F)c1)C(=O)OC(C)(C)C [Example 39, tert-butyl N-(2-{4-[6-amino-5-(2,4-difluorobenzoyl)-2-oxopyridin-1(2H)-yl]-3,5-difluorophenyl}ethyl)-D-leucinate]
19 | 100 to 1000 nM | < 100 nM | CC(C)C[C@H](NCCc1cc(F)c(-n2c(N)c(C(=O)c3ccc(F)cc3F)ccc2=O)c(F)c1)C(=O)OC(C)(C)C [Example 37, tert-butyl N-(2-{4-[6-amino-5-(2,4-difluorobenzoyl)-2-oxopyridin-1(2H)-yl]-3,5-difluorophenyl}ethyl)-L-leucinate]
20 | < 100 nM | < 100 nM | Nc1c(C(=O)c2ccc(F)cc2F)ccc(=O)n1-c1c(F)cc(CCN[C@@H](C(=O)OC2CCCC2)c2ccccc2)cc1F [Example 42, Cyclopentyl (2R)-[(2-{4-[6-amino-5-(2,4-difluorobenzoyl)-2-oxopyridin-1(2H)-yl]-3,5-difluorophenyl}ethyl)amino](phenyl)acetate]
